Drawing on patent publication US20240294465A1, “NOVEL ANTI-FIBROTIC DRUGS” (HELMHOLTZ ZENTRUM MUNCHEN - DEUTSCHES FORSCHUNGSZENTRUM FUR …, priority 2021, published 2024), this text covers inhibition for 34 compounds.

For one assay, the system named is TGFβ1-induced fibulin-1 ECM deposition in primary human lung IPF-fibroblasts (phLFs). The experiment in a line: Assessing N23P activity in inhibiting ECM deposition in IPF-fibroblasts (fibulin-1 MFI). The class given is cell-based. The following applies: Homo sapiens, 72 h, 10 μM, TGFβ1 1 ng/ml, MFI, one or two different IPF-phLFs (n=1-2). As for the experimental part: phLFs were cultured in DMEM F-12 medium with 20% fetal bovine serum (FBS) and antibiotic supplement as mentioned above. Cells were seeded with 6000 cells/well in 384-well CellCarrier plates (Perkin Elmer, Cat #6007550). Following overnight incubation, cells were starved in serum-reduced medium (1% FBS with 0.1 mM 2-phosphoascorbate (Sigma, Cat #49752)) for 24 h. Afterwards, cells were treated with TGFβ1 (1 ng/ml) or vehicle, and additionally small molecules or appropriate vehicle controls were added. After 72 h of incubation, medium was changed for starving medium with 1 μg/mL AlexaFluor-488 fluorophore conjugated anti-collagen-type-5 antibodies (SantaCruz, Clone C-5, Cat #sc-166155 AF488), 0.66 μg/mL AlexaFluor-555 fluorophore conjugated anti-collagen-type-1 antibodies (Rockland, Cat #600-401-103-0.1), and 1 μg/mL AlexaFluor-637 fluorophore conjugated anti-fibulin 1 antibodies (SantaCruz, Clone C-5, Cat #sc-25281 AF647) and 1 μg/mL Hoechst H33342 (Sigma). Fluorescenceconjugation of the collagen type 1 antibody was done by using the AlexaFluor-555 Protein Labeling Kit (Invitrogen, Cat #A20174) according to manufacturer's instructions. Labeling efficacy was controlled by photometrical means.
Following four hours of incubation, cells were washed three times with PBS and fixed with paraformaldehyde (PFA). For automated liquid handling in 384 well plates, an INTEGRA Assist Plus (INTEGRA, Zizers, Switzerland) equipped with an INTEGRA Viaflo 1I pipette (INTEGRA, Zizers, Switzerland, Cat #4642), 125 μL GripTips™ pipette tips (INTEGRA, Zizers, Switzerland, Cat #6464) and sterile reagent reservoirs (INTEGRA, Cat #4311) were applied. All automated pipetting steps with the INTEGRA Assist Plus were performed at 9.5 μL/s in order to ensure proper integrity and attachment of the deposited ECM to the culturing surface within the wells of the 384-well plates. During cell seeding the automated liquid handling was performed at 89.3 μL/s. Removal of liquids from the well-plates was done by manually inverting the plates.
Following fixation, the automated imaging was achieved by using aconfocal laser scanning microscope (LSM710, Zeiss) with automated focus detection for three-dimensional image acquisition (1024 px×1024 px×9 px which equals a dimension of 1417 μm×1417 μm×16 μm). For post-acquisition analysis images were imported into IMARIS software (Bitplane) and volume detection or alternatively quantification of the mean fluorescence intensity, as well as Hoechst-stained cell nuclei were automatically counted by using Imaris' spot detection algorithm.
Cells were seeded with 6000 cells/well in 384-well CellCarrier plates. After overnight incubation, cells were starved in serum-reduced medium (1% FBS with 0.1 mM 2-phosphoascorbate for 24 h). Then, phLFs were treated with TGFβ1 (1 ng/ml) or vehicle, and incubated together with synthesized N23Ps (10 μM) or appropriate vehicle controls. After 72 h of incubation, medium was changed for starvation medium with 1 μg/mL AlexaFluor-637 fluorophore conjugated anti-fibulin 1 antibodies (SantaCruz, Clone C-5, Cat #sc-25281 AF647) and 1 μg/mL Hoechst H33342 (Sigma). Following four hours of incubation, cells were washed three times with PBS and fixed with paraformaldehyde (PFA). Following fixation, the automated imaging was achieved by using a confocal laser scanning microscope (LSM710, Zeiss) with automated focus detection for three-dimensional image acquisition (1024 px×1024 px×9 px which equals a dimension of 1417 μm×1417 μm×16 μm). For post-acquisition analysis images were imported into IMARIS software (Bitplane) and quantified for the mean fluorescence intensity, as well as Hoechst-stained cell nuclei were automatically counted by using Imaris' spot detection algorithm.
Assessment of ECM inhibition I: Mean fluorescence intensity (MFI) values represented the degree of fibulin-1 ECM deposition in three different IPF-phLFs (n=3). […]
Broadly, the inhibition is the change of the read-out against control, counted positive when it falls. High values mean a response far below the control, low ones a response near the control. With `CCCCOc1ccccc1NC(=O)/C=C/c1ccc2c(c1)OC(F)(F)O2` [Example 6], the inhibition at 10 µM lay within 20 to 60%. Same read-out and setting: under `C#CCCOc1ccccc1NC(=O)/C=C/c1ccc(OC)cc1` [Example 46, (E)-N-(2-(but-3-yn-1-yloxy)phenyl)-3-(4-methoxyphenyl)acrylamide] stands 20 to 60%; under `COc1ccc(/C=C/C(=O)Nc2ccccc2OCCCC2CC2)cc1` [Example 60, (E)-N-(2-(3-cyclopropylpropoxy)phenyl)-3-(4-methoxyphenyl)acrylamide], more than 90%; under `CCCCOc1ccccc1NC(=O)/C=C/c1ccc2c(c1)CCC(C)(C)O2` [Example 63], 20 to 60%.

Compound `CCCCOc1ccccc1NC(=O)/C(=C/c1ccc(OC)cc1)C(C)C` [Example 82, (E)-N-(2-butoxyphenyl)-2-(4-methoxybenzylidene)-3-methylbutanamide] returned an inhibition at 10 µM of 20 to 60%.

With `C#CCCCOc1ccc(/C=C/C(=O)Nc2ccccc2OCCCC)cc1` [Example 83, (E)-N-(2-butoxyphenyl)-3-(4-(pent-4-yn-1-yloxy)phenyl)acrylamide], the inhibition at 10 µM was more than 90%.

Regarding `CCCCOc1ccccc1NC(=O)/C=C/c1ccc(S(C)(=O)=O)cc1` [Example 153, (E)-N-(2-butoxyphenyl)-3-(4-(methylsulfonyl)phenyl)acrylamide], the inhibition at 10 µM was more than 90%. `COc1ccc(/C=C/C(=O)Nc2ccccc2OCCC(F)(F)F)cc1` [Example 155, (E)-3-(4-methoxyphenyl)-N-(2-(3,3,3-trifluoropropoxy)phenyl)acrylamide] came in with an inhibition at 10 µM of 60 to 90%.

Consider `O=C(/C=C/c1ccc2c(c1)OC(F)(F)O2)Nc1ccc(F)c(F)c1OCCC1CC1` [Example 156, (E)-N-(2-(2-cyclopropylethoxy)-3,4-difluorophenyl)-3-(2,2-difluorobenzo[d][1,3]dioxol-5-yl)acrylamide], for which the inhibition at 10 µM lay within 60 to 90%.

Consider `CCCCOc1ccccc1NC(=O)/C=C/c1ccc2[nH]c(C)nc2c1` [Example 161, (E)-N-(2-butoxyphenyl)-3-(2-methyl-1H-benzo[d]imidazol-5-yl)acrylamide], for which the inhibition at 10 µM was more than 90%. Still for that read-out and setting: under `CCCCOc1c(NC(=O)/C=C/c2ccc3sc(C)nc3c2)ccc(F)c1F` [Example 162, (E)-N-(2-butoxy-3,4-difluorophenyl)-3-(2-methylbenzo[d]thiazol-5-yl)acrylamide] stands 60 to 90%.

Staying with this assay, now noted: Homo sapiens, 72 h, 10 μM, TGFβ1 1 ng/ml, MFI, three different IPF-phLFs (n=3).
`CCCCOc1ccccc1NC(=O)/C=C/c1ccc(OCC(F)(F)F)cc1` [Example 2, (E)-N-(2-butoxyphenyl)-3-(4-(2,2,2-trifluoroethoxy)phenyl)acrylamide]: the inhibition at 10 µM lay within 60 to 90%.

As to `COc1ccc(/C=C/C(=O)Nc2ccccc2Oc2ccccc2)cc1` [Example 3, (E)-3-(4-methoxyphenyl)-N-(2-phenoxyphenyl)acrylamide], the inhibition at 10 µM was more than 90%. `COc1ccc(/C=C/C(=O)Nc2ccccc2OCc2ccc(F)cc2)cc1` [Example 5, (E)-N-(2-((4-fluorobenzyl)oxy)phenyl)-3-(4-methoxyphenyl)acrylamide] had an inhibition at 10 µM of more than 90%. Still for that read-out and setting: the same measure for `CCCCOc1ccccc1NC(=O)/C=C/c1ccc2c(c1)OC(F)(F)O2` [Example 6]: 60 to 90%. Still for that read-out and setting: under `CCCCOc1ccccc1NC(=O)/C=C/c1cccc(OC)c1` [Example 7, (E)-N-(2-butoxyphenyl)-3-(3-methoxyphenyl)acrylamide] stands 60 to 90%.

For `CCCCOc1ccccc1NC(=O)/C=C/c1ccc(OC(F)F)cc1` [Example 11, (E)-N-(2-butoxyphenyl)-3-(4-(difluoromethoxy)phenyl)acrylamide], the inhibition at 10 µM was 60 to 90%. The same measure, in the same setting: the same measure for `COc1ccc(/C=C/C(=O)Nc2ccccc2OCc2ccccc2)cc1` [Example 12, (E)-N-(2-(benzyloxy)phenyl)-3-(4-methoxyphenyl)acrylamide]: more than 90%. The same measure, in the same setting: under `CCCCOc1c(NC(=O)/C=C/c2ccc(OC)cc2)ccc(F)c1F` [Example 13] stands more than 90%; under `CCCCOc1ccccc1NC(=O)/C=C/c1ccc(OCC)cc1` [Example 20, (E)-N-(2-butoxyphenyl)-3-(4-ethoxyphenyl)acrylamide], 60 to 90%. On the same count and under the same terms, under `CCCCOc1cc(Cl)ccc1NC(=O)/C=C/c1ccc(OC)cc1` [Example 21, (E)-N-(2-butoxy-4-chlorophenyl)-3-(4-methoxyphenyl)acrylamide] stands 20 to 60%. The compound `COc1ccc(/C=C/C(=O)Nc2ccccc2OCCCC(F)(F)F)cc1` [Example 29, (E)-3-(4-methoxyphenyl)-N-(2-(4,4,4-trifluorobutoxy)phenyl)acrylamide] displayed an inhibition at 10 µM of 20 to 60%. For the compound `CCCCOc1cc(F)ccc1NC(=O)/C=C/c1ccc(OC)cc1` [Example 31, (E)-N-(2-butoxy-4-fluorophenyl)-3-(4-methoxyphenyl)acrylamide], the inhibition at 10 µM lay within 60 to 90%. For `CCCCOc1ccccc1NC(=O)/C=C/c1cc(F)c(OC)c(F)c1` [Example 33, (E)-N-(2-butoxyphenyl)-3-(3,5-difluoro-4-methoxyphenyl)acrylamide], the inhibition at 10 µM lay in the range of 60 to 90%. The same measure, in the same setting: the same measure for `CCCCOc1ccccc1NC(=O)/C=C/c1ccc2c(c1)CCO2` [Example 34, (E)-N-(2-butoxyphenyl)-3-(2,3-dihydrobenzofuran-5-yl)acrylamide]: more than 90%; for `CCCCOc1cccc(Cl)c1NC(=O)/C=C/c1ccc(OC)c(OC)c1` [Example 36, (E)-N-(2-butoxy-6-chlorophenyl)-3-(3,4-dimethoxyphenyl)acrylamide]: 60 to 90%. Still for that read-out and setting: the same measure for `CCCCOc1ccccc1NC(=O)/C=C/c1ccc2occc2c1` [Example 37, (E)-3-(benzofuran-5-yl)-N-(2-butoxyphenyl)acrylamide]: more than 90%.

In turn, `COc1ccc(/C=C/C(=O)Nc2ccccc2OCCC2CC2)cc1` [Example 38, (E)-N-(2-(2-cyclopropylethoxy)phenyl)-3-(4-methoxyphenyl)acrylamide] yielded an inhibition at 10 µM of more than 90%. With `COc1ccc(/C=C/C(=O)Nc2ccccc2Oc2ccc(Cl)cc2)cc1` [Example 39, (E)-N-(2-(4-chlorophenoxy)phenyl)-3-(4-methoxyphenyl)acrylamide], the inhibition at 10 µM fell in the range of 60 to 90%. Same read-out and setting: under `COc1ccc(/C=C/C(=O)Nc2ccccc2Oc2ccccc2F)cc1` [Example 43, (E)-N-(2-(2-fluorophenoxy)phenyl)-3-(4-methoxyphenyl)acrylamide] stands 60 to 90%. The same measure, in the same setting: under `COc1ccc(/C=C/C(=O)Nc2ccccc2OCc2ccc(Cl)cc2)cc1` [Example 45, (E)-N-(2-((4-chlorobenzyl)oxy)phenyl)-3-(4-methoxyphenyl)acrylamide] stands more than 90%.

`CCCCOc1ccccc1N(C)C(=O)/C=C/c1ccc(OC)c(OC)c1` [Example 67] registered an inhibition at 10 µM of more than 90%. Still for that read-out and setting: under `CCCCOc1ccccc1N(C)C(=O)/C=C/c1ccc(OCC)cc1` [Example 71, (E)-N-(2-butoxyphenyl)-3-(4-ethoxyphenyl)-N-methylacrylamide] stands 20 to 60%; under `CCCCOc1ccccc1N(Cc1ccccc1)C(=O)/C=C/c1ccc(OC)cc1` [Example 75, (E)-N-benzyl-N-(2-butoxyphenyl)-3-(4-methoxyphenyl)acrylamide], more than 90%; under `CCCCOc1ccccc1NC(=O)/C(C)=C/c1ccc(OC)cc1` [Example 79, (E)-N-(2-butoxyphenyl)-3-(4-methoxyphenyl)-2-methylacrylamide], 60 to 90%.

The compound `C#CCCCOc1ccc(/C=C/C(=O)Nc2ccccc2OCCCC)cc1` [Example 83, (E)-N-(2-butoxyphenyl)-3-(4-(pent-4-yn-1-yloxy)phenyl)acrylamide] gave an inhibition at 10 µM of more than 90%.
